# In PubChem BioAssay AID248 (DTP/NCI, 2004):
# Values joined by “and” are separate entries in the source; they are usually repeats but may differ in a detail not shown here. Identical values can stand only once. Toxic doses and inconclusive results are not listed.
# System: L1210 leukemia ip in BDF1 mice, survival T/C
# Experiment: NCI In Vivo Anticancer Drug Screen. Data for tumor model L1210 Leukemia (intraperitoneal) in B6D2F1 (BDF1) mice
# Settings: endpoint: mean survival time, higher = longer survival
# Outline: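 Ratio derived from survival: compound-dosed mice over vehicle-dosed mice, all bearing a transplantable tumor.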
structure (smiles),measurement,setting,value
CN(Cc1cnc2nc(N)nc(N)c2n1)c1c(Cl)cc(C(=O)NC(CCC(=O)O)C(=O)O)cc1Cl (configuration not stated),T/C,"dose: 0.05 mg/kg/injection, schedule: Q03HX024 (ip), vehicle: alkali diluted with saline",108 % of control
same,T/C,"dose: 0.12 mg/kg/injection, schedule: Q01DX Z (ip), vehicle: saline",103 % of control
same,T/C,"dose: 0.2 mg/kg/injection, schedule: Q03HX024 (ip), vehicle: alkali diluted with saline",121 % of control
same,T/C,"dose: 0.31 mg/kg/injection, schedule: Q03HX008 (ip), vehicle: carboxymethylcellulose (CMC)",114 % of control
same,T/C,"dose: 0.39 mg/kg/injection, schedule: Q03HX024 (ip), vehicle: carboxymethylcellulose (CMC)",111 % of control
same,T/C,"dose: 0.5 mg/kg/injection, schedule: Q01DX Z (ip), vehicle: saline",106 % of control
same,T/C,"dose: 0.5 mg/kg/injection, schedule: Q01DX Z (sc), vehicle: alkali diluted with saline",102 % of control
same,T/C,"dose: 0.6 mg/kg/injection, schedule: Q## X008 (ip), vehicle: alkali diluted with saline",106 % of control
same,T/C,"dose: 0.63 mg/kg/injection, schedule: Q03HX008 (ip), vehicle: carboxymethylcellulose (CMC)",119 % of control
same,T/C,"dose: 0.78 mg/kg/injection, schedule: Q03HX024 (ip), vehicle: carboxymethylcellulose (CMC)",114 % of control
same,T/C,"dose: 1.0 mg/kg/injection, schedule: Q01DX Z (im), vehicle: alkali diluted with saline",107 % of control
same,T/C,"dose: 1.0 mg/kg/injection, schedule: Q01DX Z (ip), vehicle: saline",122 % of control
same,T/C,"dose: 1.0 mg/kg/injection, schedule: Q01DX Z (sc), vehicle: alkali diluted with saline",95 % of control
same,T/C,"dose: 2.5 mg/kg/injection, schedule: Q01DX005 (ip), vehicle: carboxymethylcellulose (CMC)",117 % of control
same,T/C,"dose: 2.5 mg/kg/injection, schedule: Q01DX Z (im), vehicle: alkali diluted with saline",102 % of control
same,T/C,"dose: 2.5 mg/kg/injection, schedule: Q01DX Z (sc), vehicle: alkali diluted with saline",106 % of control
same,T/C,"dose: 3.0 mg/kg/injection, schedule: Q01DX Z (ip), vehicle: carboxymethylcellulose (CMC)",159 % of control
same,T/C,"dose: 3.0 mg/kg/injection, schedule: Q01DX Z (ip), vehicle: saline",169 % of control
same,T/C,"dose: 4.0 mg/kg/injection, schedule: Q## X008 (ip), vehicle: alkali diluted with saline",104 % of control
same,T/C,"dose: 5.0 mg/kg/injection, schedule: Q01DX005 (ip), vehicle: carboxymethylcellulose (CMC)",120 % of control
same,T/C,"dose: 5.0 mg/kg/injection, schedule: Q01DX009 (ip), vehicle: carboxymethylcellulose (CMC)",121 % of control
same,T/C,"dose: 5.0 mg/kg/injection, schedule: Q01DX009 (sc), vehicle: carboxymethylcellulose (CMC)",115 % of control
same,T/C,"dose: 5.0 mg/kg/injection, schedule: Q01DX Z (im), vehicle: alkali diluted with saline",112 % of control
same,T/C,"dose: 5.0 mg/kg/injection, schedule: Q01DX Z (oral), vehicle: alkali diluted with saline",120 % of control
same,T/C,"dose: 5.0 mg/kg/injection, schedule: Q01DX Z (sc), vehicle: alkali diluted with saline",105 % of control
same,T/C,"dose: 5.0 mg/kg/injection, schedule: Q#A X Z (ip), vehicle: methylcellulose (MC)",162 % of control
same,T/C,"dose: 6.0 mg/kg/injection, schedule: Q01DX Z (ip), vehicle: carboxymethylcellulose (CMC)",161 % of control
same,T/C,"dose: 6.25 mg/kg/injection, schedule: Q03HX024 (ip), vehicle: carboxymethylcellulose (CMC)",116 % of control
same,T/C,"dose: 9.0 mg/kg/injection, schedule: Q01DX Z (ip), vehicle: clinical formulation",157 % of control
same,T/C,"dose: 10.0 mg/kg/injection, schedule: Q01DX006 (iv), vehicle: alkali diluted with saline",106 % of control
same,T/C,"dose: 10.0 mg/kg/injection, schedule: Q01DX Z (im), vehicle: alkali diluted with saline",159 % of control
same,T/C,"dose: 10.0 mg/kg/injection, schedule: Q01DX Z (ip), vehicle: saline",167 % of control
same,T/C,"dose: 10.0 mg/kg/injection, schedule: Q01DX Z (oral), vehicle: alkali diluted with saline",120 % of control
same,T/C,"dose: 10.0 mg/kg/injection, schedule: Q01DX Z (sc), vehicle: alkali diluted with saline",159 % of control
same,T/C,"dose: 12.5 mg/kg/injection, schedule: Q03HX024 (ip), vehicle: carboxymethylcellulose (CMC)",122 % of control
same,T/C,"dose: 15.0 mg/kg/injection, schedule: Q## X008 (ip), vehicle: alkali diluted with saline",114 % of control
same,T/C,"dose: 20.0 mg/kg/injection, schedule: Q01DX006 (iv), vehicle: alkali diluted with saline",123 % of control
same,T/C,"dose: 20.0 mg/kg/injection, schedule: Q01DX007 (ip), vehicle: other",160 % of control
same,T/C,"dose: 20.0 mg/kg/injection, schedule: Q01DX009 (ip), vehicle: carboxymethylcellulose (CMC)",153 % of control
same,T/C,"dose: 20.0 mg/kg/injection, schedule: Q01DX Z (oral), vehicle: alkali diluted with saline",115 % of control
same,T/C,"dose: 20.0 mg/kg/injection, schedule: Q#A X Z (ip), vehicle: olive oil, sesame oil, peanut oil",116 % of control
same,T/C,"dose: 25.0 mg/kg/injection, schedule: Q04DX003 (ip), vehicle: alkali diluted with saline",112 % of control
same,T/C,"dose: 25.0 mg/kg/injection, schedule: Q04DX003 (ip), vehicle: carboxymethylcellulose (CMC)",117 % of control
same,T/C,"dose: 25.0 mg/kg/injection, schedule: Q## X003 (ip), vehicle: other",106 % of control
same,T/C,"dose: 25.0 mg/kg/injection, schedule: Q## X016 (ip), vehicle: other",115 % of control
same,T/C,"dose: 30.0 mg/kg/injection, schedule: Q01DX Z (ip), vehicle: carboxymethylcellulose (CMC)",159 % of control
same,T/C,"dose: 30.0 mg/kg/injection, schedule: Q03DX Z (ip), vehicle: methylcellulose (MC)",122 % of control
same,T/C,"dose: 40.0 mg/kg/injection, schedule: Q01DX007 (ip), vehicle: other",163 % of control
same,T/C,"dose: 40.0 mg/kg/injection, schedule: Q01DX009 (ip), vehicle: carboxymethylcellulose (CMC)",161 % of control
same,T/C,"dose: 40.0 mg/kg/injection, schedule: Q01DX Z (ip), vehicle: methylcellulose (MC)",169 % of control
same,T/C,"dose: 40.0 mg/kg/injection, schedule: Q01DX Z (oral), vehicle: alkali diluted with saline",102 % of control
same,T/C,"dose: 50.0 mg/kg/injection, schedule: Q## X003 (ip), vehicle: other",124 % of control
same,T/C,"dose: 50.0 mg/kg/injection, schedule: Q## X016 (ip), vehicle: other",121 % of control
same,T/C,"dose: 67.5 mg/kg/injection, schedule: Q01DX Z (ip), vehicle: saline",150 % of control
same,T/C,"dose: 70.0 mg/kg/injection, schedule: Q01DX001 (ip), vehicle: methylcellulose (MC)",116 % of control
same,T/C,"dose: 70.0 mg/kg/injection, schedule: Q01DX Z (ip), vehicle: clinical formulation",103 % of control
same,T/C,"dose: 70.0 mg/kg/injection, schedule: Q07DX Z (ip), vehicle: methylcellulose (MC)",116 % of control
same,T/C,"dose: 80.0 mg/kg/injection, schedule: Q01DX005 (ip), vehicle: carboxymethylcellulose (CMC)",158 % of control
same,T/C,"dose: 80.0 mg/kg/injection, schedule: Q01DX006 (iv), vehicle: alkali diluted with saline",165 % of control
same,T/C,"dose: 80.0 mg/kg/injection, schedule: Q01DX Z (im), vehicle: alkali diluted with saline",113 % of control
same,T/C,"dose: 80.0 mg/kg/injection, schedule: Q01DX Z (oral), vehicle: alkali diluted with saline",94 % of control
same,T/C,"dose: 80.0 mg/kg/injection, schedule: Q01DX Z (sc), vehicle: alkali diluted with saline",112 % of control
same,T/C,"dose: 90.0 mg/kg/injection, schedule: Q01DX Z (ip), vehicle: saline",94 % of control
same,T/C,"dose: 100.0 mg/kg/injection, schedule: Q01DX001 (sc), vehicle: carboxymethylcellulose (CMC)",111 % of control
same,T/C,"dose: 100.0 mg/kg/injection, schedule: Q04DX003 (ip), vehicle: alkali diluted with saline",124 % of control
same,T/C,"dose: 120.0 mg/kg/injection, schedule: Q01DX001 (ip), vehicle: carboxymethylcellulose (CMC)",117 % of control
same,T/C,"dose: 120.0 mg/kg/injection, schedule: Q03DX Z (ip), vehicle: methylcellulose (MC)",153 % of control
same,T/C,"dose: 120.0 mg/kg/injection, schedule: Q## X008 (ip), vehicle: other",112 % of control
same,T/C,"dose: 140.0 mg/kg/injection, schedule: Q01DX001 (ip), vehicle: methylcellulose (MC)",116 % of control
same,T/C,"dose: 140.0 mg/kg/injection, schedule: Q01DX Z (ip), vehicle: clinical formulation",110 % of control
same,T/C,"dose: 140.0 mg/kg/injection, schedule: Q07DX Z (ip), vehicle: methylcellulose (MC)",123 % of control
same,T/C,"dose: 200.0 mg/kg/injection, schedule: Q01DX001 (sc), vehicle: carboxymethylcellulose (CMC)",114 % of control
same,T/C,"dose: 200.0 mg/kg/injection, schedule: Q01DX001 (sc), vehicle: other",121 % of control
same,T/C,"dose: 200.0 mg/kg/injection, schedule: Q04DX003 (ip), vehicle: carboxymethylcellulose (CMC)",157 % of control
same,T/C,"dose: 200.0 mg/kg/injection, schedule: Q## X016 (ip), vehicle: other",162 % of control
same,T/C,"dose: 240.0 mg/kg/injection, schedule: Q01DX001 (ip), vehicle: alkali diluted with saline",115 % of control
same,T/C,"dose: 240.0 mg/kg/injection, schedule: Q01DX001 (ip), vehicle: other",113 % of control
same,T/C,"dose: 240.0 mg/kg/injection, schedule: Q## X008 (ip), vehicle: other",112 % of control
same,T/C,"dose: 285.0 mg/kg/injection, schedule: Q01DX001 (ip), vehicle: carboxymethylcellulose (CMC)",110 % of control
same,T/C,"dose: 400.0 mg/kg/injection, schedule: Q01DX001 (ip), vehicle: olive oil, sesame oil, peanut oil",114 % of control
same,T/C,"dose: 400.0 mg/kg/injection, schedule: Q01DX001 (sc), vehicle: other",121 % of control
same,T/C,"dose: 400.0 mg/kg/injection, schedule: Q04DX003 (ip), vehicle: alkali diluted with saline",166 % of control
same,T/C,"dose: 400.0 mg/kg/injection, schedule: Q07DX Z (ip), vehicle: olive oil, sesame oil, peanut oil",97 % of control
same,T/C,"dose: 434.0 mg/kg/injection, schedule: Q01DX001 (ip), vehicle: carboxymethylcellulose (CMC)",121 % of control
same,T/C,"dose: 480.0 mg/kg/injection, schedule: Q01DX001 (ip), vehicle: alkali diluted with saline",122 % of control
same,T/C,"dose: 560.0 mg/kg/injection, schedule: Q01DX001 (ip), vehicle: methylcellulose (MC)",123 % of control
same,T/C,"dose: 800.0 mg/kg/injection, schedule: Q01DX001 (ip), vehicle: olive oil, sesame oil, peanut oil",109 % of control and 120 % of control
same,T/C,"dose: 800.0 mg/kg/injection, schedule: Q04DX003 (ip), vehicle: alkali diluted with saline",168 % of control
same,T/C,"dose: 800.0 mg/kg/injection, schedule: Q07DX Z (ip), vehicle: olive oil, sesame oil, peanut oil",106 % of control
same,T/C,"dose: 800.0 mg/kg/injection, schedule: Q## X003 (ip), vehicle: other",169 % of control
same,T/C,"dose: 800.0 mg/kg/injection, schedule: Q## X016 (ip), vehicle: other",165 % of control
same,T/C,"dose: 875.0 mg/kg/injection, schedule: Q01DX001 (ip), vehicle: alkali diluted with saline",158 % of control
same,T/C,"dose: 960.0 mg/kg/injection, schedule: Q01DX001 (ip), vehicle: carboxymethylcellulose (CMC)",158 % of control
same,T/C,"dose: 1200.0 mg/kg/injection, schedule: Q01DX001 (ip), vehicle: olive oil, sesame oil, peanut oil",115 % of control and 122 % of control
same,T/C,"dose: 1200.0 mg/kg/injection, schedule: Q07DX Z (ip), vehicle: olive oil, sesame oil, peanut oil",95 % of control
same,T/C,"dose: 1600.0 mg/kg/injection, schedule: Q04DX003 (ip), vehicle: alkali diluted with saline",98 % of control
same,T/C,"dose: 1600.0 mg/kg/injection, schedule: Q07DX Z (ip), vehicle: olive oil, sesame oil, peanut oil",101 % of control
